Legend:
[1] = system: Erysiphe graminis f. sp. hordei; experiment: In vivo preventive test on Erysiphe gramini (powdery mildew on barley); conditions: Blumeria graminis, 168 h, 1000 ppm of active ingredient, evaluated 7 days after inoculation, read-out: efficacy
[2] = system: Puccinia recondita f. Sp. tritici; experiment: In vivo preventive test on Puccinia recondita f. Sp. tritici (wheat brown rust); conditions: topical, 240 h, 1000 ppm of active ingredient, evaluated 10 days after inoculation, read-out: efficacy
Heliotis virescens = Heliotis virescens test (HELIVI spray application); assay type: in vivo; conditions: soybean leaf sections, concentration and time not stated
physchem = conditions: reversed-phase HPLC column (C 18)
Sphaerotheca fuliginea = experiment: In vivo protective test on Sphaerotheca fuliginea (cucumbers); conditions: Podosphaera fuliginea, 168 h, 100 ppm of active ingredient, evaluated 7 days after inoculation, read-out: efficacy
Alternaria solani = experiment: In vivo protective test on Alternaria solani (leaf spot of tomato); conditions: 168 h, 500 ppm of active ingredient, evaluated 7 days after inoculation, read-out: efficacy
Podosphaera leucotricha = experiment: In vivo protective test on Podosphaera leucotricha (apples); conditions: topical, 240 h, 100 ppm of active ingredient, evaluated 10 days after inoculation, read-out: efficacy

chromatographic logP (physchem) | Compound | pest or weed control at 1000 ppm [1] [%] | pest or weed control at 1000 ppm [2] [%] | activity (mortality of eggs) (Heliotis virescens) | pest or weed control at 100 ppm (Sphaerotheca fuliginea) [%] | pest or weed control at 500 ppm (Alternaria solani) [%] | pest or weed control at 100 ppm (Podosphaera leucotricha) [%]
1.94 | Cc1cc(Oc2nc(Cl)c(C)s2)c(C)cc1/N=C/N(C)C(C)C [Compound 1.23] | ≥ 70 | ≥ 70 | good activity | – | – | –
2.76 | CCN(C)/C=N/c1cc(C)c(Oc2nc(C(C)(C)C)c(Cl)s2)cc1C [Compound 1.4] | ≥ 70 | ≥ 70 | – | ≥ 70 | ≥ 70 | ≥ 70
2.22 | Cc1cc(Oc2nc(Cl)c(Br)s2)c(C)cc1/N=C/N(C)C(C)C [Compound 1.11] | ≥ 70 | ≥ 70 | good activity | ≥ 70 | – | ≥ 70
